Assay results as given in US7981926B2, “Fluorotaxoids” (Research Foundation of State University of New York, priority 2005, dated 2011).
Read-outs that look alike come from different tables or passages of the source.

Tests used:
[1] = test system: MCF7 (mammary carcinoma); assay: Tumor growth inhibitory activity (cytotoxicity), SRB method of Skehan et al, MCF7; assay type: cell-based, human; details: Homo sapiens, read-out: IC50 MCF7 (breast)
Source text: (§1) The results were obtained according to the methods of Skehan et al (See Skehan et al., J. Nat. Cancer Inst., 82, 1107 (1990)), as more fully described in the Examples. The resistance factor (R/S) shown in the table is a measure of the degree of resistance of a cell line against a taxoid compound. The resistance factor is a ratio of the cytoxicity of a taxoid compound against a drug-resistant cell line (R) as compared to its cytoxicity against a drug-sensitive cell line (S).
(§2) In the tables, lower numbers indicate higher potency (or greater activity). Paclitaxel was used as the standard for comparison. The data represent the mean values of at least three separate experiments.
(§3) Assessment of cell growth inhibition was determined according to the methods of Skehan et al (See Skehan et al., J. Nat. Cancer Inst., 82, 1107 (1990)). Briefly, cells were plated between 400 and 1200 cells/well in 96 well plates and incubated at 37° C. for 15-18 h prior to drug addition to allow attachment of cells. Compounds tested were solubilized in 100% DMSO and further diluted in RPMI-1640 containing 10 mM HEPES. Each cell line was treated with 10 concentrations of compounds (5 log range). After a 72 h incubation, 100 μL of ice-cold 50% TCA was added to each well and incubated for 1 h at 4° C. Plates were then washed 5 times with tap water to remove TCA, low-molecular-weight metabolites and serum proteins. Sulforhodamine B (SRB) (0.4%, 50 μL) was added to each well. Following a 5 minute incubation at room temperature, plates were rinsed 5 times with 0.1% acetic acid and air dried. Bound dye was solubilized with 10 mM Tris Base (pH 10.5) for 5 min on a gyratory shaker. Optical density was measured at 570 nm.
(§4) Data were fit with the Sigmoid-Emax concentration-effect model with non-linear regression, weighted by the reciprocal of the square of the predicted response (see Holford, N. H. G.; Scheiner, L. B., “Understanding the dose-effect relationship: Clinical applications of pharmaco-kinetic-pharmacodynamic models,” Clin. Pharmacokin., 6, 429-453 (1981)). The fitting software was developed by the Roswell Park Cancer Institute with Microsoft FORTRAN, and uses the Marquardt algorithm (see Marquardt, D. W., “An algorithm for least squares estimation of nonlinear parameters,” J. Soc. Ind. Appl. Math., 11, 431-441 (1963)) as adopted by Nash for the non-linear regression (see Nash, J. C., “Compact numerical method for computers: Linear algebra and function minimization,” John Wiley & Sons, New York, 1979).

[2] = test system: MCF7-R (mammary carcinoma cells 250-fold resistant to paclitaxel); assay: Tumor growth inhibitory activity (cytotoxicity), SRB method of Skehan et al, MCF7-R; assay type: cell-based, human; details: for IC50: Homo sapiens, MCF7R, read-out: IC50 MCF7-R (breast); for R/S (resistance factor): ratio of cytotoxicity against drug-resistant MCF7-R (R) to drug-sensitive MCF7 (S)
Source text: as §1, §2, §3, §4

[3] = MCF7, 72 h drug exposure, SRB, mean of at least three separate experiments
[4] = drug-resistant cell line, 72 h drug exposure, SRB, mean of at least three separate experiments

SMILES | IC50 [1, 3] | melting point | IC50 [2, 4] | R/S (resistance factor) [2] | IC50 ([1]; MCF7, 72 h) | IC50 ([2]; 72 h)
CC(=O)O[C@H]1C(=O)[C@@]2(C)C([C@H](OC(=O)c3ccccc3)[C@]3(O)C[C@H](OC(=O)[C@H](O)[C@H](C=C(F)F)NC(=O)OC(C)(C)C)C(C)=C1C3(C)C)[C@]1(OC(C)=O)CO[C@@H]1C[C@@H]2O (stereo partly shown) [SB-T-12851, 10-Acetyl-3′-dephenyl-3′-(2,2-difluorovinyl)docetaxel] | 0.099 nM | 155 to 160 °C | 0.95 nM | 9.6 | – | –
CCC(=O)O[C@H]1C(=O)[C@@]2(C)C([C@H](OC(=O)c3ccccc3)[C@]3(O)C[C@H](OC(=O)[C@H](O)[C@H](C=C(F)F)NC(=O)OC(C)(C)C)C(C)=C1C3(C)C)[C@]1(OC(C)=O)CO[C@@H]1C[C@@H]2O (stereo partly shown) [SB-T-12853, 3′-Dephenyl-3′-(2,2-difluorovinyl)-10-propanoyl-docetaxel] | 0.12 nM | 175 to 181 °C | 1.2 nM | 10 | – | –
CC(=O)O[C@@]12CO[C@@H]1C[C@H](O)[C@@]1(C)C(=O)[C@H](OC(=O)N(C)C)C3=C(C)[C@@H](OC(=O)[C@H](O)[C@H](C=C(F)F)NC(=O)OC(C)(C)C)C[C@@](O)([C@@H](OC(=O)c4ccccc4)C12)C3(C)C (stereo partly shown) [SB-T-12854, 3′-Dephenyl-3′-(2,2-difluorovinyl)-10-dimethylcarbamoyldocetaxel] | – | 166 to 170 °C | – | 33 | 0.13 nM | 4.27 nM
CC(=O)O[C@@]12CO[C@@H]1C[C@H](O)[C@@]1(C)C(=O)[C@H](OC(=O)N(C)C)C3=C(C)[C@@H](OC(=O)[C@H](O)[C@H](C=C(F)F)NC(=O)OC(C)(C)C)C[C@@](O)([C@@H](OC(=O)c4cccc(F)c4)C12)C3(C)C (stereo partly shown) [SB-T-12854-2, 3′-Dephenyl-3′-(2,2-difluorovinyl)-2-debenzoyl-2-(3-fluorobenzoyl)-10-dimethylcarbamoyldocetaxel] | – | – | – | 9.4 | 0.17 nM | 2.25 nM
CC(=O)O[C@@]12CO[C@@H]1C[C@H](O)[C@@]1(C)C(=O)[C@H](OC(=O)N(C)C)C3=C(C)[C@@H](OC(=O)[C@H](O)[C@H](C=C(F)F)NC(=O)OC(C)(C)C)C[C@@](O)([C@@H](OC(=O)c4cccc(N=[N+]=[N-])c4)C12)C3(C)C (stereo partly shown) [SB-T-12854-3, 3′-Dephenyl-3′-(2,2-difluorovinyl)-2-debenzoyl-2-(3-azidobenzoyl)-10-dimethylcarbamoyldocetaxel] | – | – | – | 3.7 | 0.13 nM | 0.45 nM
CC(=O)O[C@@]12CO[C@@H]1C[C@H](O)[C@@]1(C)C(=O)[C@H](OC(=O)N(C)C)C3=C(C)[C@@H](OC(=O)[C@H](O)[C@H](C=C(F)F)NC(=O)OC(C)(C)C)C[C@@](O)([C@@H](OC(=O)c4cccc(Cl)c4)C12)C3(C)C (stereo partly shown) [SB-T-12854-4, 3′-Dephenyl-3′-(2,2-difluorovinyl)-2-debenzoyl-2-(3-chlorobenzoyl)-10-dimethylcarbamoyldocetaxel] | – | – | – | 2.8 | 0.93 nM | 2.6 nM
COC(=O)O[C@H]1C(=O)[C@@]2(C)C([C@H](OC(=O)c3ccccc3)[C@]3(O)C[C@H](OC(=O)[C@H](O)[C@H](C=C(F)F)NC(=O)OC(C)(C)C)C(C)=C1C3(C)C)[C@]1(OC(C)=O)CO[C@@H]1C[C@@H]2O (stereo partly shown) [SB-T-12855, 3′-Dephenyl-3′-(2,2-difluorovinyl)-10-methoxycarbonyldocetaxel] | 0.14 nM | 144 to 148 °C | 1.29 nM | 9.2 | – | –
COC(=O)O[C@H]1C(=O)[C@@]2(C)C([C@H](OC(=O)c3cccc(OC)c3)[C@]3(O)C[C@H](OC(=O)[C@H](O)[C@H](C=C(F)F)NC(=O)OC(C)(C)C)C(C)=C1C3(C)C)[C@]1(OC(C)=O)CO[C@@H]1C[C@@H]2O (stereo partly shown) [SB-T-12855-1, 3′-Dephenyl-3′-(2,2-difluorovinyl)-2-debenzoyl-2-(3-methoxybenzoyl)-10-methoxycarbonyldocetaxel] | 0.078 nM | – | 0.5 nM | 6.4 | – | –
COC(=O)O[C@H]1C(=O)[C@@]2(C)C([C@H](OC(=O)c3cccc(F)c3)[C@]3(O)C[C@H](OC(=O)[C@H](O)[C@H](C=C(F)F)NC(=O)OC(C)(C)C)C(C)=C1C3(C)C)[C@]1(OC(C)=O)CO[C@@H]1C[C@@H]2O (stereo partly shown) [SB-T-12855-2, 3′-Dephenyl-3′-(2,2-difluorovinyl)-2-debenzoyl-2-(3-fluorobenzoyl)-10-methoxycarbonyldocetaxel] | 0.12 nM | – | 1.85 nM | 11 | – | –
COC(=O)O[C@H]1C(=O)[C@@]2(C)C([C@H](OC(=O)c3cccc(N=[N+]=[N-])c3)[C@]3(O)C[C@H](OC(=O)[C@H](O)[C@H](C=C(F)F)NC(=O)OC(C)(C)C)C(C)=C1C3(C)C)[C@]1(OC(C)=O)CO[C@@H]1C[C@@H]2O (stereo partly shown) [SB-T-12855-3, 3′-Dephenyl-3′-(2,2-difluorovinyl)-2-debenzoyl-2-(3-azidobenzoyl)-10-methoxycarbonyldocetaxel] | 0.076 nM | – | 0.4 nM | 5.3 | – | –
COC(=O)O[C@H]1C(=O)[C@@]2(C)C([C@H](OC(=O)c3cccc(Cl)c3)[C@]3(O)C[C@H](OC(=O)[C@H](O)[C@H](C=C(F)F)NC(=O)OC(C)(C)C)C(C)=C1C3(C)C)[C@]1(OC(C)=O)CO[C@@H]1C[C@@H]2O (stereo partly shown) [SB-T-12855-4, 3′-Dephenyl-3′-(2,2-difluorovinyl)-2-debenzoyl-2-(3-chlorobenzoyl)-10-methoxycarbonyldocetaxel] | 0.099 nM | – | 1.15 nM | 12 | – | –
